Tests used:
[1] = tested on: Cimex lectularius (adults); assay: Device choice test in arenas: compound device vs mixture device vs untreated control (Tables 2 and 3); format: in vivo; details: 1.0 mg of each compound per device (Device A), 20 bugs per arena, against mixture device and UTC
Description: The attraction, arresting, or aggregation of bed bugs from the species Cimex lectularius to cholesterol, 2-Heptanone, and 2-Heptanone oxime was evaluated in Tables 2 and 3 by the following methodology. In this example, 20 Cimex lectularius (adults) were placed in plastic boxes (20×20 cm). The bottom of each box was covered with paper. A piece of folded filter paper served as a shelter for the Cimex lectularius bed bugs. The bed bugs were fed two days before they were put into the test-arenas. As set forth in Table 2, three types of devices were compared: Device (A): a device containing cholesterol (Box 1), a device containing 2-Heptanone (Box 2), a device containing 2-Heptanone-oxime (Box 3), and a device containing 2-Heptanone and 2-Heptanone-oxime (Box 4); Device (B): a device containing a mixture of cholesterol, 2-Heptanone, and 2-Heptanone-oxime (Box 1-4); and Device (C) a device without an attractant, arresting, or aggregating compound, serving as a control (“UTC”). The concentrations of the compounds tested are as follows: Cholesterol—1% in ethanol, 0.1 ml per detection device (1 mg a.i.); 2-Heptanone—1% in ethanol, 0.1 ml per detection device (1 mg a.i.); and 2-Heptanone oxime—1% in ethanol, 0.1 ml per detection device (1 mg a.i.). [table] The number of bed bugs in the different devices and on the bottom of the arenas were counted at day 1, day 4, and day 7 after the start of the trial. The total number of bugs per arena was 20. The relative effectiveness of cholesterol, 2-Heptanone, and 2-Heptanone-oxime in attracting, arresting, or aggregating bed bugs was evaluated in Table 3.

[2] = tested on: Cimex lectularius (adults); assay: Device choice test in arenas: treated device vs untreated control at 0.1 mg and 0.5 mg (Tables 4 and 5); format: in vivo; details: 20 bugs per arena, against UTC device
Description: In this example, 20 Cimex lectularius (adults) were placed in plastic boxes (20×20 cm). The bottom of each box was covered with paper. A piece of folded filter paper served as a shelter for the Cimex lectularius bed bugs. The bed bugs were fed two days before they were put into the test-arenas. As set forth in Table 4, the ability of 2-Heptanone and 2-Heptanone-oxime to attract bed bugs at a concentration of 0.1 mg and 0.5 mg was evaluated. Device (A) includes 2-Heptanone, 2-Heptanone oxime, or both 2-Heptanone and 2-Heptanone oxime. Device (B) served as an untreated control. [table] […] The total number of bugs per arena was 20.

Compound: CCCCCC(C)=NO [2-Heptanone-oxime, 2-Heptanone oxime]
- Number of bed bugs in the device (Compounds) ([1]; day 1): 13
- Number of bed bugs in the device (Compounds) ([1]; day 4): 13
- Number of bed bugs in the device (Compounds) ([1]; day 7): 13
- Number of bed bugs in the device (Compounds + concentrations) ([2]; 0.1 mg per device, day 1): 12
- Number of bed bugs in the device (Compounds + concentrations) ([2]; 0.1 mg per device, day 3): 14
- Number of bed bugs in the device (Compounds + concentrations) ([2]; 0.1 mg per device, day 6): 15
- Number of bed bugs in the device (Compounds + concentrations) ([2]; 0.5 mg per device, day 1): 8
- Number of bed bugs in the device (Compounds + concentrations) ([2]; 0.5 mg per device, day 3): 11
- Number of bed bugs in the device (Compounds + concentrations) ([2]; 0.5 mg per device, day 6): 12

Compound: CCCCCC(C)=O [2-Heptanone]
- Number of bed bugs in the device (Compounds) ([1]; day 1): 2
- Number of bed bugs in the device (Compounds) ([1]; day 4): 2
- Number of bed bugs in the device (Compounds) ([1]; day 7): 2
- Number of bed bugs in the device (Compounds + concentrations) ([2]; 0.1 mg per device, day 1): 0
- Number of bed bugs in the device (Compounds + concentrations) ([2]; 0.1 mg per device, day 3): 0
- Number of bed bugs in the device (Compounds + concentrations) ([2]; 0.1 mg per device, day 6): 1
- Number of bed bugs in the device (Compounds + concentrations) ([2]; 0.5 mg per device, day 1): 0
- Number of bed bugs in the device (Compounds + concentrations) ([2]; 0.5 mg per device, day 3): 0
- Number of bed bugs in the device (Compounds + concentrations) ([2]; 0.5 mg per device, day 6): 1

Compound: CC(C)CCC[C@@H](C)[C@H]1CC[C@H]2[C@@H]3CC=C4C[C@@H](O)CC[C@]4(C)[C@H]3CC[C@]12C [Cholesterol, cholesterol]
- Number of bed bugs in the device (Compounds) ([1]; day 1): 1
- Number of bed bugs in the device (Compounds) ([1]; day 4): 1
- Number of bed bugs in the device (Compounds) ([1]; day 7): 1

— patent US20110289824A1, “COMPOUNDS, METHODS, AND DEVICES FOR DETECTING AND/OR TREATING INSECT INFESTATION” (priority 2010, published 2011)
